The values that follow come from PMC4608773, “Elisidepsin Interacts Directly with Glycosylceramides in the Plasma Membrane of Tumor Cells to Induce Necrotic Cell Death” (PLoS ONE, 2015).

Assay [1] has as its system HCT-116 cells. Nature of the assay: cells. As to the method: (§1) Cells were seeded in 96-well microtiter plates and maintained at 37°C and 5% CO2 in drug-free medium before treatment with vehicle alone or elisidepsin at the concentrations and times indicated in the text. For cell survival quantification, a colorimetric assay using SRB was used. Briefly, after treatment, cells were washed twice with phosphate buffered saline (PBS), fixed for 25 min in 1% glutaraldehyde solution, rinsed twice with PBS, stained in 0.4% SRB-1% acetic acid solution for 30 min, rinsed several times with 1% acetic acid solution, and air-dried. […] Results are expressed as percentage of control cell survival and represent the mean of at least three independent experiments. IC50, half-maximal inhibitory concentration, was used as a reference value.

Assay [2] deals with HCT-116-Irv cells (elisidepsin-resistant subline). Nature of the assay: cells. The procedure:
B16 and GM95 cells were maintained in DMEM with the same supplements and conditions.
as §1

The next assay has as its system B16 cells. Nature of the assay: Cell viability assay (SRB colorimetric). The assay is classed as cell-based, mouse. The settings on record: SRB assay; mean of three different experiments; read-out: B16 (IC50), cell growth half-maximal inhibitory concentration. The procedure: as §1
Assay [3] concerns GM95 cells (UGCG-deficient B16 mutant). Briefly: Cell viability assay (SRB colorimetric). To be noted: negative values where GM95 is the more sensitive line. It is filed as cell-based, mouse. As to the method: as §1
The next assay deals with GM95-UGCG cells. To be noted: read-out: mean IC50, GM95-UGCG cells; 72 h treatment (Fig 4C); SRB; at least three experiments. The procedure:
as §1

Assay [4] has as its system HCT-116 cells. Nature of the assay: Electrophysiological recordings of membrane conductance (whole-cell patch-clamp). The assay is classed as cell-based, human. The settings on record: elisidepsin 1 μM, ramps -100 mV to +120 mV, 500 ms, n = 4. As to the method: (§2) The effects of elisidepsin on membrane conductance were analyzed in HCT-116 and HCT-116-Irv cells as previously described. Experiments were performed in a small bath mounted on the stage of an inverted microscope (Nikon model TMS, Garden City, NY, USA) continuously perfused with the extracellular solution (Tyrode-glucose buffer). Ion currents were recorded at room temperature (20–22°C) using the whole-cell voltage-clamp configuration of the patch-clamp technique with an Axopatch 200B patch-clamp amplifier (Axon Instruments, Foster City, CA). Currents were filtered at 2 kHz (four-pole Bessel filter), sampled at 4 kHz. Data acquisition and command potentials were controlled by the CLAMPEX program of PCLAMP 9.2 software (Axon Instruments). Micropipettes were pulled from borosilicate glass capillary tubes (Narishige, GD-1, Tokyo, Japan) on a programmable horizontal puller (Sutter Instrument Co., San Rafael, CA, USA) and heat-polished with a microforge (Narishige). Pipette tip resistance averaged between 1 and 3 MΩ. The intracellular pipette solution contained (in mM): K-aspartate 80, KCl 50, phosphocreatine 3, KH2PO4 10, MgATP 3, HEPES-K 10, EGTA-K 5 and was adjusted to pH 7.25 with KOH. The external solution (Tyrode-glucose buffer) contained (in mM): NaCl 130, KCl 4, CaCl2 1.8, MgCl2 1, HEPES-Na 10, and glucose 10, and was adjusted to pH 7.40 with NaOH. Measurements were performed using the CLAMPFIT program of PCLAMP 9.2.
On the technique in general: In patch-clamp work, channel activity is measured electrically.

The test system of another assay is HCT-116-Irv cells. The assay is described as above. The assay is classed as cell-based, human. To be noted: elisidepsin 1 μM; ramps -100 mV to +120 mV, 500 ms. As to the method: as §2
The nature of assay [5]: Lipid overlay (dot-blot) assay with elisidepsin-biotin. It is filed as binding, human. To be noted: elisidepsin-biotin:elisidepsin 1:1 and 1:15. The procedure:
Lipid extracts from cells were obtained according to the Bligh and Dyer method with slight modifications. Briefly, a cell pellet was resuspended in 1 mL of distilled water, then 3.75 mL of chloroform:methanol (1:2) was added and the suspension was mixed by vortexing two minutes; next, 1.25 mL of chloroform was added and vortexed one minute; last, 1.25 mL of NaCl 1 M was added to the suspension and vortexed one minute. The suspension was centrifuged and the bottom organic phase was collected. This solution was dried under a nitrogen stream and stored at -20°C. This extract was dissolved in a small volume of chloroform:methanol (2:1) and lipids were separated in a HPTLC (high performance thin layer chromatography) silica gel plate (Merck-Millipore, Darmstad, Germany) using a mobile phase of chloroform:methanol (8:2). Lipids were visualized by staining the plate with thioflavine S (sprayed with 10 μg mL^-1 in acetone:water (4:1) and visualized under UV light). Glycosylated lipids were visualized by orcinol staining (sprayed with orcinol 0.5% in sulphuric acid 0.5 M and developed with heat). […]
Interaction of purified lipid fractions with elisidepsin was evaluated with an overlay assay. […] Elisidepsin-biotin interactions were detected by incubation with streptavidin-HRP and subsequent chemiluminescence.

Read-outs that look alike come from different tables or passages of the source. A value given as a limit tells only on which side of the number the result lay.

With `C/C=C1\NC(=O)[C@H](Cc2ccccc2)NC(=O)[C@@H](C(C)C)NC(=O)[C@@H]([C@@H](C)CC)NC(=O)[C@H](NC(=O)[C@H](NC(=O)[C@H](CCCN)NC(=O)[C@H]2CCCN2C(=O)[C@H](NC(=O)[C@@H](NC(=O)[C@@H](NC(=O)[C@H](NC(=O)CC[C@@H](C)CC)C(C)C)[C@@H](C)O)C(C)C)C(C)C)[C@@H](C)CC)[C@@H](C)OC(=O)[C@H](C(C)C)NC1=O` [Elisidepsin], the “Sensitivity of HCT-116 cells to elisidepsin after pretreatment with UGCG inhibitor NB-DNJ” value with HCT-116 cells [1] (pretreated 48 h with NB-DNJ 200 μM, elisidepsin 30 min incubation, SRB, three experiments) is given as “increase in cell resistance”. Besides, the “Sensitivity of HCT-116 cells to elisidepsin after pretreatment with UGCG inhibitor PDMP” value with HCT-116 cells [1] (pretreated 72 h with PDMP 10 μM, elisidepsin 30 min incubation, SRB, three experiments) is “increase in cell resistance”. Besides, the IC50 in the assay with HCT-116 cells [1] (read-out: HCT-116 (IC50), cell growth half-maximal inhibitory concentration, SRB assay, 96-well, mean of three different experiments, exposure time not given) is 5.5 µM; with HCT-116 cells [1] (read-out: IC50 after 30 min exposure, HCT-116, 30 min exposure, SRB, mean±SD of at least three experiments), 7.7 ± 4.1 µM; in assay [2] (read-out: HCT-116-Irv (IC50), cell growth half-maximal inhibitory concentration, SRB assay, 96-well, mean of three different experiments, exposure time not given), 81 µM; in assay [2] (read-out: IC50 after 30 min exposure, HCT-116-Irv, 30 min exposure, SRB, at least three experiments) it was greater than 100 µM; in assay [2] (read-out: IC50 after 72 h exposure, HCT-116-Irv, 72 h exposure, SRB, mean±SD of at least three experiments), 81.5 ± 0.8 µM; in the assay with B16 cells, 7.9 µM. Further, the IC50 in the assay with GM95-UGCG cells amounted to 9 µM. The “RR (resistance ratio): fold change between IC50 values from HCT-116-Irv and HCT-116” value in assay [2] (negative values where HCT-116-Irv is the more sensitive line) is 14.7. For the same compound, in assay [3], the “RR: fold change between IC50 values from GM95 and B16” value was determined as 8.9. In the assay with HCT-116 cells [4] (holding -80 mV, 20–22°C), the “Time constant of the increase of membrane conductance” value was 107 ± 39 s. Moreover, the “Latency between application and the beginning of the effects on membrane conductance” value in the assay on HCT-116 cells [4] was 460 ± 163 s. Moreover, the “Effect on membrane conductance” value with HCT-116-Irv cells is “virtually no effect”. In assay [5], the “Competition with elisidepsin-biotin for lipid fraction 4” value is reported as “could displace the biotinylated compound”.
